Test results: US9216968B2, “Heterocyclic derivative and pharmaceutical drug” (NIPPON SHINYAKU CO., LTD., priority 2011, dated 2015)
Counter-ions that a name gives are not always drawn.

Tests used:
A549 cells = experiment: Inhibition of PGE2 production in A549 cell (IL-1β stimulated); format: cell-based, human; details: Homo sapiens, A549, 24 h, IL-1β 5 ng/well, PGE2 in culture medium
Procedure, shortened: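 After IL-1β (5 ng/well) stimulation for 24 h at 37 °C, following a 60-min compound pretreatment in RPMI with 3% FBS, medium PGE2 (HTRF) and PGF2α (EIA) from human A549 cells were quantified. 100% activity set as IL-1β-induced minus basal production; IC50 calculated.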

human mPGES-1 = human mPGES-1 (Homo sapiens (Human), UniProt O14684); experiment: mPGES-1 inhibiting activity (microsome fractions, PGE2 by HTRF); format: biochemical; details: microsomes from CHO-K1 cells transfected with human mPGES-1; PGH2 1 μM, 4° C., 60 seconds; read-out: mPGES-1 Inhibition IC50
human mPGES-1, sequence (O14684 whole entry): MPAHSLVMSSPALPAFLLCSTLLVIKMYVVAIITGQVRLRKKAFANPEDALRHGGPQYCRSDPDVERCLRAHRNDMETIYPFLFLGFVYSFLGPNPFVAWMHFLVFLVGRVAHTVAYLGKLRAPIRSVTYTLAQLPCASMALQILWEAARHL
Procedure, shortened: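 PGE2 formation read by HTRF after 60 s at 4 °C with 1 μM PGH2 substrate, following 20 min compound preincubation (1% DMSO) with human mPGES-1 microsomes from transfected CHO-K1 cells. Buffer: potassium phosphate, reduced glutathione, pH 7.4; IC50 from activity relative to enzyme-free blank.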

SMILES	IC50 (A549 cells)	IC50 (human mPGES-1)
COCc1nc2c(C(=O)Nc3ccccc3F)cc(NC(=O)c3ccccc3C(F)(F)F)cc2[nH]1 [Example 35, N-(2-Fluorophenyl)-2-(methoxymethyl)-6-({[2-(trifluoromethyl)phenyl]carbonyl}amino)-1H-benzimidazole-4-carboxamide]	205 nM	20.3 nM
COCCCc1ccc(Cl)c(C(=O)Nc2cc(C(=O)Nc3cccc(Cl)c3C)c3nc(COC)[nH]c3c2)c1 [Example 116, 6-({[2-Chloro-5-(3-methoxypropyl)phenyl]carbonyl}amino)-N-(3-chloro-2-methylphenyl)-2-(methoxymethyl)-1H-benzimidazole-4-carboxamide hydrochloride]	252 nM	9.7 nM
COCc1nc2c(C(=O)Nc3cccc(Br)c3C)cc(NC(=O)c3ccccc3C(F)(F)F)cc2[nH]1 [Example 38, N-(3-Bromo-2-methylphenyl)-2-(methoxymethyl)-6-({[2-(trifluoromethyl)phenyl]carbonyl}amino)-1H-benzimidazole-4-carboxamide]	17.4 nM	6.6 nM
Cc1c(Cl)cccc1NC(=O)c1cc(NC(=O)c2ccccc2C(F)(F)F)cc2[nH]c(C3(C)CC3)nc12 [Example 85, N-(3-chloro-2-methylphenyl)-2-(1-methylcyclopropyl)-6-({[2-(trifluoromethyl)phenyl]carbonyl}amino)-1H-benzimidazole-4-carboxamide]	3.7 nM	0.5 nM
CCOCc1ccc(Cl)c(C(=O)Nc2cc(C(=O)Nc3cccc(Cl)c3C)c3nc(COC)[nH]c3c2)c1 [Example 120, 6-({[2-Chloro-5-(ethoxymethyl)phenyl]carbonyl}amino)-N-(3-chloro-2-methylphenyl)-2-(methoxymethyl)-1H-benzimidazole-4-carboxamide]	513 nM	57.5 nM
COCc1nc2c(C(=O)Nc3cccc(Cl)c3C)cc(NC(=O)c3ccccc3C(F)(F)F)cc2[nH]1 [Example 11, N-(3-chloro-2-methylphenyl)-2-(methoxymethyl)-6-({[2-(trifluoromethyl)phenyl]carbonyl}amino)-1H-benzimidazole-4-carboxamide]	12.9 nM	6.6 nM
COCC(C)(C)CNc1nc2c(C(=O)Nc3cccc(Cl)c3C)cc(NC(=O)c3ccccc3C(F)(F)F)cc2[nH]1 [Example 163, N-(3-Chloro-2-methylphenyl)-2-[(3-methoxy-2,2-dimethylpropyl)amino]-6-({[2-(trifluoromethyl)phenyl]carbonyl}amino)-1H-benzimidazole-4-carboxamide hydrochloride]	23.2 nM	5.9 nM
